Measurements taken from publication PMC3359661, “FK228 Analogues Induce Fetal Hemoglobin in Human Erythroid Progenitors” (Anemia, 2012).

Legend:
[1] = test system: HbF-positive primary erythroid progenitors; experiment: Anti-HbF FITC immunostaining of primary erythroid progenitors; assay type: cell-based, human; details: anti-HbF FITC / DAPI, 500 cells counted; 15.5% HbF-positive at baseline in untreated cells
Experimental: (§1) The two-phase liquid culture system was established as previously published by Fibach et al. using buffy coat mononuclear cells, purchased from Carter Blood Care (Fort Worth, TX) in accordance with the guidelines of the Institutional Review Board at the University of Texas at Dallas. During phase 1, cells were grown in IMDM medium with 30% fetal bovine serum and 50 ng/mL each of the granulocyte-monocyte colony-stimulating factor, Interleukin-3, and stem cell factor. Subsequently, phase 2 was initiated on day 7 with the addition of erythropoietin (2 U/mL) and stem cell factor (50 ng/mL). The cells were treated on Day 11 with the different test compounds and harvested on Day 14 (72 hr incubation).
Primary erythroid progenitor cytospin cell preparations were fixed with 4% paraformaldehyde in phosphate buffered saline for 15 min, washed, and then permeabilized with 0.3% Trition-100 solution for 10 min. Cells were then blocked in a 5% bovine serum albumin solution and immunostaining performed at 4°C overnight with anti-HbF fluorescein isothiocyanate (FITC) conjugated antibody (Bethyl Laboratories Inc., TX). Cell nuclei were stained with mounting medium containing 4′,6-diamidino-2-phenylindole (DAPI; Santa Cruz Biotechnology, CA). Primary cells were photographed with an Olympus BX 51 phase contrast epifluorescent microscope equipped with Hoffman Modulation optics. Phase-contrast images were recorded with a CCD camera (1/100 sec exposure) and fluorescence images were photographed through 485/520 nm emission filter. The percent of HbF positive cells was calculated by dividing the number of FITC positive cells by total cells (DAPI positive).
(§2) Figure 3 JMA33 and JMA26 induce HbF in primary erythroid cells. (a) Day 11 erythroid progenitors were treated for 48 hr with the controls agents and the FK228 analogues shown and then analyzed by RT-qPCR. Untreated cells (UT) were used as a control and normalized to one. Data were calculated as the means ± SEM. […] The images generated were used to count 500 DAPI positive cells and the %FITC positive cells were calculated accordingly.

[2] = test system: γ-globin promoter activity in KU812-γF/βR stable lines; experiment: KU812 dual-luciferase reporter stable lines (μLCRβprRluc AγprFluc), γ-globin promoter activity; assay type: cell-based, human; details: 48 hr; for Fold change (γ/γ + 2β): untreated normalized to one
Source text: KU812 stable cell lines were created by co-transfecting wild-type KU812 cells with pEGFP-NI (G418 selectable marker) and theμLCRβ prRluc ^A γ prFluc dual-reporter a kind gifts from Dr. George Stamatoyannopoulos (University of Washington). […] Likewise, 1.4 kb of human Aγ-globin promoter was inserted upstream of firefly luciferase to create ^A γ prFluc. The μLCR (locus control region), Pβ prRluc, and ^A γ prFluc fragments were subsequently cloned into the mammalian vector, pRL-null.
After 72 hr, G418 was added at a concentration of […] for 3 days then maintained under selection pressure indefinitely at a concentration of […]. KU812 stable lines were treated with the various drugs at the same concentrations described above. FK228 and analogues were screened at concentrations between 1–1000 nM for 48 hr and cell toxicity was monitored by 2% Trypan blue exclusion. The effect of drug treatments on γ-globin and β-globin promoter activity was monitored by luciferase assay.
Luciferase activity was monitored under the different experimental conditions using the Dual Luciferase Assay Reporter System (Promega, Madison, WI). The activity of firefly luciferase represents γ-globin promoter activity (γF), while the renilla luciferase is the read-out for β-globin promoter activity (βR). The β-globin promoter was strategically cloned between the LCR and γ-globin promoter to increase β expression, while simultaneously increasing the sensitivity of detection of γ-globin gene inducers.
After drug treatments, KU812 stable cells were washed with 1X phosphate buffered saline and lysed in 1X Passive Lysis Buffer for 15 min, then protein extracts were added to the Luciferase Assay Reagent II and firefly luciferase activity quantified in a Turner Designs TD-20/20 luminometer (Sunnyvale, CA). To measure βR activity, Stop & Glo Reagents was added to measure the renilla luciferase activity. Total protein was determined by Bradford assay on a Beckman DU 640 spectrophotometer (Chaska, MN) and luciferase activity was corrected for total protein.
Subsequently, three independent dual-luciferase reporter KU812 stable cell lines were established to analyze the ability FK228 analogues to induce γ-globin promoter activity without an effect on β-globin transcription. […] Since the firefly luciferase gene (γF) has approximately […] luminescence than the renilla gene (βR), the renilla activity was multiplied by two to adjust for the difference in luminescence yielding the γ/γ+2β final measurement. The FK228 analogues were examined at concentrations ranging from 1–1000 nM in the three stable lines. After 48-hour treatments, cells were harvested and protein isolated for luciferase activity using the Dual Luciferase Reporter Assay.

[3] = test system: γ-globin transcription in primary erythroid progenitors; experiment: RT-qPCR of γ-globin mRNA in primary erythroid progenitors (two-phase liquid culture); assay type: cell-based, human; details: Day 11 erythroid progenitors treated 48 hr (Figure 3 legend), untreated normalized to one
Experimental: as §1
Total RNA was isolated from samples using RNA Stat-60 (TEL-TEST “B” Inc., Friendswood, TX) and used for RT-qPCR analysis as previously published. […] The globin mRNA levels were calculated as a ratio of GAPDH (γ/GAPDH, β/GAPDH), and the γ/β-globin mRNA ratio was calculated by dividing γ/GAPDH by β/GAPDH.
as §2, with “Untreated cells (UT) were used as a control and normalized to one.” left out

[4] = test system: HbF levels in primary erythroid cells; experiment: HbF ELISA in primary erythroid cells; assay type: cell-based, human; details: for Fold change in HbF levels: relative to untreated = 1, concentrations as in E7; for Fetal hemoglobin quantification, Mean (HbF/total Hb/total protein): treated Day 11, harvested Day 14, conc: Cys 10 mM, Hemin 50 μM, SAHA 2000 nM, FK228 1.5 nM, JMA1 1.5 nM, JMA2 1.0 nM, JMA26 500 nM, JMA33 1000 nM, untreated 0.683
Experimental: as §1
Total hemoglobin was quantified using 20 μL of protein extract from one million KU812 cells mixed with 5 mL of Drabkin's reagent (Sigma); then cyanmethemoglobin was measured at the 540 nm wavelength. HbF levels were quantified using the human Hemoglobin F ELISA Quantitation Kit (Bethyl Laboratory, Montgomery, TX). Briefly, 96-well plates were coated with sheep anti-human HbF antibody (1 mg/mL). After blocking with 1% bovine serum albumin, horse radish peroxidase-conjugated secondary antibody (1 mg/mL) was added. Raw data were analyzed using GraphPad PRISM (GraphPad Software, Inc., La Jolla, CA) and HbF levels were calculated as a ratio of total hemoglobin corrected for total protein (HbF/total Hb/total protein).

sickle-cell patients = details: sickle cell patients treated with hydroxyurea; cited from earlier work
Source text: Several classes of pharmacological compounds that reactivate γ-globin gene transcription have been identified. They include cytotoxic agents, DNA methyl transferase, and histone deacetylase (HDAC) inhibitors. Cytotoxic compounds terminate actively cycling progenitors and perturb cellular growth to trigger rapid erythroid regeneration and γ-globin gene activation. S-stage cytotoxic drugs, such as cytosine arabinoside, myleran, vinblastine, and hydroxyurea, induce HbF production in primates and humans. The Multicenter Study of Hydroxyurea established ...

[5] = test system: HDAC activity in HeLa cells; experiment: HDAC Fluorescent Activity Assay (Fluor de Lys) in HeLa cells; assay type: cell-based, human; details: TSA 0.5 to 1000 nM; HeLa cells, Fluor de Lys substrate, fluorescence 440 nm
Experimental: The HDAC Fluorescent Activity Assay (Enzo Life Science, Farmingdale, NY) was used to measure HDAC inhibition in HeLa cells in a 96-well format using Trichostatin A as the positive control per the manufacturer's protocol. This assay is based on the Fluor de Lys (Fluorogenic Histone Deacetylase Lysyl (FDL)) Substrate/Developer. The procedure was as follows: the test compounds FK228, JMA26, and JMA33 were added to HeLa cells along with the FDL substrate to allow intracellular drug activation then fluorescence levels were read on the fluorometer at 440 nm (CytoFluor II, PerSeptive Biosystems, Farmingdale, NY). The drug concentrations tested were based on the amount required for HbF induction in primary cells. Data was reported as the mean ± standard deviation (SD) for at least five replicates.
To ascertain the mechanism of HbF induction by the lead compounds, we performed an in vivo assay to investigate the ability of JMA26 and JMA33 to act as HDAC inhibitors. The HDAC Fluorescent Activity Assay designed to measure HDAC activity in HeLa cells was completed in a 96-well format. The assay is based on the fact that the Fluor de Lys substrate is deacetylated by HDACs to generate a fluorescent readout. TSA (0.5 to 1000 nM) was used to establish the assay in HeLa cells, showing about 80% HDAC inhibition in our system (Figure 4(a)).
Figure 4 HDAC inhibition assay. The HDAC Fluorescent Activity Assay was used to measure HDAC inhibition in HeLa cells (See Section 2). Compounds and FDL substrate were added to HeLa cells to allow drug activation in vivo then fluorescence levels were quantified on the fluorometer at 440 nm. (a) Trichostatin A (TSA) was used as the control. (b) Inhibition studies were conducted for FK228 showing maximal HDAC inhibition at the 300 nM concentration. (c) Similar studies were performed for JMA33 and JMA26. The data are reported as the means ± SEM.

[6] = test system: γ-globin gene transcription in KU812 cells; experiment: RT-qPCR of γ/β-globin mRNA in wild type KU812 cells; assay type: cell-based, human; details: 48 hr, Hem 50 μM, NaB 2 mM, SAHA 2 μM, FK228 1.5 nM, Cys 10 mM, untreated normalized to one, range over the drugs
Experimental: Human KU812 leukemia cells were grown in Iscove's Modified Dulbecco's medium (IMDM) (Invitrogen, Carlsbad, CA) with 10% fetal bovine serum (Atlanta Biologicals, Atlanta, GA), penicillin (100 U/mL), and streptomycin (0.1 mg/mL). The cells were incubated at 37°C with 5% CO2. Cell count and viability were determined using a hemocytometer and 2% Trypan blue exclusion. Inductions were performed with one million cells treated for 48 hr with the following drugs purchased from Sigma (St Louis, MO): 50 μM Hem (hemin), 2 mM NaB (sodium buytrate), 0.5 μM TSA, 10 mM Cys (cysteine), 1.5 nM FK228, and 100 μM HU (hydroxyurea). […] Inc. (Whitehouse Station, NJ).
Total RNA was isolated from samples using RNA Stat-60 (TEL-TEST “B” Inc., Friendswood, TX) and used for RT-qPCR analysis as previously published. […] The globin mRNA levels were calculated as a ratio of GAPDH (γ/GAPDH, β/GAPDH), and the γ/β-globin mRNA ratio was calculated by dividing γ/GAPDH by β/GAPDH. […]
Figure 2 Known HbF inducers activate γ-globin expression in KU812 cells. […] Cells were treated for 48 hr with the different drug inducers and γ-globin and β-globin gene transcription were measured by RT-qPCR (see Section 2). […] Data were calculated as the means ± standard error of the mean (SEM); *P < 0.05 and **P < 0.01. […]

[7] = Line 1, firefly (γ) / renilla (β) luciferase corrected for total protein, mean, conc: Cys 10 mM, Hemin 50 μM, SAHA 2000 nM, FK228 1.5 nM, 1127Ox 1000 nM, JMA1 1.5 nM, JMA2 1.0 nM, JMA12 1000 nM, JMA26 500 nM, JMA33 1000 nM, JMA112 100 nM, untreated 0.0402
[8] = Line 1, concentrations as in E1
[9] = Line 2, concentrations as in E1, untreated 0.1573
[10] = Line 2, concentrations as in E1
[11] = Line 3, concentrations as in E1, untreated 0.0721
[12] = Line 3, concentrations as in E1

Row | Compound | increase in HbF-positive cells [1] | γ/γ + 2β Mean [2, 7] | Fold change (γ/γ + 2β) [2, 8] | γ/γ + 2β Mean [2, 9] | Fold change (γ/γ + 2β) [2, 10] | γ/γ + 2β Mean [2, 11] | Fold change (γ/γ + 2β) [2, 12] | induction of γ-globin transcription at the mRNA level [3] | Fold change in HbF levels [4] | Fetal hemoglobin quantification, Mean (HbF/total Hb/total protein) [4] | non-response rate (sickle-cell patients) | HDAC inhibition [5] | increase in the γ/β-globin mRNA levels [6]
1 | O=C(CCCCCCC(=O)Nc1ccccc1)NO [SAHA, suberoylanilide hydroxamic acid] | 3.2 fold | 0.2157 | 5.400 | 0.6500 | 4.140 | 0.2520 | 3.500 | ≤ 3.2 fold | 1.602 fold | 1.094 |  |  | 
2 | hemin | 3.0 fold | 0.1732 | 4.325 | 0.6593 | 4.261 | 0.2508 | 3.486 |  | 2.218 fold | 1.515 |  |  | 
3 | NC(=O)NO [hydroxyurea] |  |  |  |  |  |  |  |  |  |  | 30% |  | 
4 | CC(/C=C/C(=O)NO)=C\[C@@H](C)C(=O)c1ccc(N(C)C)cc1 [TSA, Trichostatin A] |  |  |  |  |  |  |  |  |  |  |  | about 80% | 
5 | N[C@@H](CS)C(=O)O [Cys, cysteine] |  | 0.0388 | 0.950 | 0.1200 | 0.764 | 0.0860 | 1.194 |  | 1.079 fold | 0.737 |  |  | not induced
